For data set [1], the target named is T1, TrpCysGlyHisCysLys (PDI active site hexapeptide) (Homo sapiens, UniProt P07237).
T1 construct: purchased Auspep, Parkville, Australia; host or cells: synthetic peptide
Nature of the data set: Binding of GSAO to dithiols, loss of thiols in DTNB assay. On the procedure: (§1) FIG. 12. Interaction of GSAO with synthetic. Deptide and protein dithiols. DMP (A) (15 μM), 6,8-thioctic acid (B) ([…]), dithiothreitol (C) (8.5 μM), TrpCysGlyProCysLys (D) (4.6 μM), TrpCysGlyHisCysLys (E) (5.5 μM) or thioredoxin (F) (4.1 μM corresponding to 20.6 μM thiols) was incubated with GSAO (0–56 μM) for 10 minutes. DTNB (950 μM) was then added and the reactions incubated for a further 10 minutes. The concentration of thiol in the reactions was determined from the absorbance of the TNB dianion at 412 nm. The solid lines represent the best non-linear least squares fit of the data to Equation 1 (A to E) or Equation 2 (F) and have been drawn using the parameter estimates in Table 1. The dotted line in part A represents a simulated titration assuming an infinite affinity of GSAO for the dithiol. GSAO bound to both synthetic, peptide and protein dithiols with dissociation constants in the range 130 nM to 1.4 μM.
(§2) A stock solution of DMP (5 μL, 50 μmol) was dissolved in DMSO (995 μL), giving a concentration of 50 mM DMP. A second dilution of the 50 mM DMP stock solution (10 μL) in pH 7.0 buffer (0.1 M HEPES, 0.3 M NaCl, 1 mM EDTA) (990 μL) gave a working solution of 500 ? M DMP. The activity of the arsenical could then be determined by the titration of varying amounts of arsenical against the DMP working solution (10 μL) in a 96-well microbitre plate, with the total volume made up to 195 μL by addition of buffer. After a 10 minute incubation at room temperature, during which time the solutions were agitated on a plate shaker, 5 μL of a 37.9 mM stock solution of DTNB (15 mg) in DMSO (1 mL) was added, and the plate incubated with shaking for another 10 minutes. The absorbance at 412 nm due to the formation of the TNB dianion was measured using a Molecular Devices Thermomax Plus (Palo Alto, Calif.) microplate reader. The extinction coefficient for the TNB dianion at pH 7.0 is 14,150 M^−1cm^−1 at 412 nm (Riddles et al., 1983).
(§3) Recombinant human thioredoxin produced in E. coli was from American Diagnostica, Greenwich, Conn. The hexapeptides, TrpCysGlyProCysLys (SEQ ID NO: 1) and TrpCysGiyHisCysLys (SEQ ID NO: 2), were from Auspep, Parkville, Australia.
(§4) Binding of GSAO to dithiols was measured from loss of thiols using the DTNB assay described above. The dissociation constant, Kd, for GSAO binding to dithiols was determined by incubating increasing concentrations of GSAO, I, with a fixed dithiol concentration, [S]T, and measuring the remaining dithiol using DTNB. Note that the concentration of dithiol equals half the TNB concentration. The concentration of dithiol.GSAO complex, SI, as a function of the total GSAO concentration, [I]T, is described by Equation 1 (Hogg and Jackson, 1990), [SI]=0.5.{([S]T+x.[I]T+Kd)−(([S]T+x.[I]T+Kd)^2−4.[S]T.x.[I]T)^0.5} (1) […]

Data set [2] concerns the target T2, TrpCysGlyProCysLys (thioredoxin active site hexapeptide) (Homo sapiens, UniProt P10599).
T2 construct: purchased Auspep, Parkville, Australia; host or cells: synthetic peptide
The data set is described as above. On the procedure:
as §1, §2, §3, §4

Data set [3] in a line: Interaction of GSAO with synthetic, peptide and protein dithiols (summary). The class given is binding. To be noted: units printed within the range; read-out: dissociation constants, range over all dithiols. The method, then:
as §1
Binding of GSAO to dithiols was measured from loss of thiols using the DTNB assay described above. The dissociation constant, Kd, for GSAO binding to dithiols was determined by incubating increasing concentrations of GSAO, I, with a fixed dithiol concentration, [S]T, and measuring the remaining dithiol using DTNB. Note that the concentration of dithiol equals half the TNB concentration. […]

A short description of data set [4]: Titration of cysteine with GSAO, DTNB assay. The class given is binding. The note with it: cysteine 28 μM, GSAO 0–50 μM, 10 minutes. The method, then: FIG. 11. Titration of DMP or cysteine with GSAO. DMP (15 μM corresponding to 30 μM thiols) is or cysteine (28 μM) was incubated with GSAO (0–50 μM) for 10 minutes. DTNB (950 μM) was then added and the reactions incubated for a further 10 minutes. The concentration of thiol in the reactions was determined from the absorbance of the TNB dianion at 412 nm.
as §2

The subject of data set [5] is adjuvant-induced arthritis. To be noted: rat, in vivo.
Data set [6] deals with BAE cells. Nature of the data set: cells. To be noted: Bos taurus, Endothelial cell, 24 h, read-out: IC50 for viability.
[7] abbreviates: Dissociation Constant, ring size 15, errors are 1 SD.
[8] abbreviates: dissociation constant, approximate value.

Data on one molecule can be found in patent US7186695B2 (priority 2001, dated 2007).

SMILES strings stand for the structures.

With `NC(CCC(=O)NC(CSCC(=O)Nc1ccc([As]=O)cc1)C(=O)NCC(=O)O)C(=O)O` (stereo not shown) [GSAO, 4-(N-(S-glutathionylacetyl)amino)-phenylarsenoxide], the Kd is 870 ± 270 nM in data set [1] (setting [7]); approximately 1000 nM in data set [1] (setting [8]); 1420 nM in data set [2] (setting [7]); approximately 1000 nM in data set [2] (setting [8]); 130 to 1400 nM in data set [3]. In addition, in data set [4], the “interaction of GSAO with cysteine in DTNB titration” value is recorded as “any interaction of GSAO with cysteine was displaced by DTNB”. Moreover, in data set [5], the “development of arthritis measured by arthritis severity score, gait, paw volume or weight loss” value was “effectively blocked”. Also, in data set [5], the “signs or symptoms of toxicity for the rats” value is “no signs or symptoms of toxicity”. In addition, the “weight gain, GSCA vs GSAO treated rats” value in data set [5] (2 mg/kg) is “no difference in weight gain”. Further, the IC50 (commonly the point on the concentration scale where inhibition reaches its midpoint) in data set [6] is approximately 100000 nM.
